Reference: patent EP1560558B1, “USE OF 3-POSITION CYCLOSPORIN DERIVATIVES FOR HAIR GROWTH” (LG Household & Health Care Ltd., priority 2002, dated 2010)

Tested on: Female C57BL/6 mice
Test: Test for hair growth promoting effect (hair regrowth on shaved back of mice, topical application)
Assay type: in vivo
Conditions: female C57BL/6 mice 6 to 7 weeks, hair-removed back, 100 µl (conc. 0.1% w/v) once a day for 30 days, visual approach; vehicle control 40
Procedure: Test Example: Test for hair growth promoting effect of cyclosporin derivatives of the invention
Female C57BL/6 mice of ages 6 to 7 weeks were utilized. After removing hairs on the middle of the back with an electric shaver, the mice were weighed and randomly assigned to the test groups with an even distribution of weights. The mice were given one day for adaptation. […] The results were determined by visual approach, in terms of degrees of hair regrowth. With respect to respective hair-removed areas, rates of new hair growth were examined and compared.

Compound	Area rate of hair regrowth (%)
C/C=C/C[C@@H](C)[C@@H](O)[C@H]1C(=O)N[C@@H](CC)C(=O)N(C)[C@H](SCC)C(=O)N(C)[C@@H](CC(C)C)C(=O)N[C@@H](C(C)C)C(=O)N(C)[C@@H](CC(C)C)C(=O)N[C@@H](C)C(=O)N[C@H](C)C(=O)N(C)[C@@H](CC(C)C)C(=O)N(C)[C@@H](CC(C)C)C(=O)N(C)[C@@H](C(C)C)C(=O)N1C [Compound 1, [D-2-ethylthio-sar^3]cyclosporin A]	90
C/C=C/C[C@@H](C)[C@@H](O)[C@H]1C(=O)N[C@@H](CC)C(=O)N(C)[C@H](SCCC)C(=O)N(C)[C@@H](CC(C)C)C(=O)N[C@@H](C(C)C)C(=O)N(C)[C@@H](CC(C)C)C(=O)N[C@@H](C)C(=O)N[C@H](C)C(=O)N(C)[C@@H](CC(C)C)C(=O)N(C)[C@@H](CC(C)C)C(=O)N(C)[C@@H](C(C)C)C(=O)N1C [Compound 2, [D-2-propylthio-sar^3] cyclosporin A]	92
C/C=C/C[C@@H](C)[C@@H](O)[C@H]1C(=O)N[C@@H](CC)C(=O)N(C)[C@H](SC(C)C)C(=O)N(C)[C@@H](CC(C)C)C(=O)N[C@@H](C(C)C)C(=O)N(C)[C@@H](CC(C)C)C(=O)N[C@@H](C)C(=O)N[C@H](C)C(=O)N(C)[C@@H](CC(C)C)C(=O)N(C)[C@@H](CC(C)C)C(=O)N(C)[C@@H](C(C)C)C(=O)N1C [Compound 3, [D-2-isopropylthio-sarl^3] cyclosporin A]	85
C=CCS[C@@H]1C(=O)N(C)[C@@H](CC(C)C)C(=O)N[C@@H](C(C)C)C(=O)N(C)[C@@H](CC(C)C)C(=O)N[C@@H](C)C(=O)N[C@H](C)C(=O)N(C)[C@@H](CC(C)C)C(=O)N(C)[C@@H](CC(C)C)C(=O)N(C)[C@@H](C(C)C)C(=O)N(C)[C@@H]([C@H](O)[C@H](C)C/C=C/C)C(=O)N[C@@H](CC)C(=O)N1C [Compound 4, [D-2-allylthio-sar^3] cyclosporin A]	90
C/C=C/C[C@@H](C)[C@@H](O)[C@H]1C(=O)N[C@@H](CC)C(=O)N(C)[C@H](SCc2ccccc2)C(=O)N(C)[C@@H](CC(C)C)C(=O)N[C@@H](C(C)C)C(=O)N(C)[C@@H](CC(C)C)C(=O)N[C@@H](C)C(=O)N[C@H](C)C(=O)N(C)[C@@H](CC(C)C)C(=O)N(C)[C@@H](CC(C)C)C(=O)N(C)[C@@H](C(C)C)C(=O)N1C [Compound 5, [D-2-benzylthio-sar^3] cyclosporin A]	90
C/C=C/C[C@@H](C)[C@@H](O)[C@H]1C(=O)N[C@@H](CC)C(=O)N(C)[C@H](Sc2ccc([N+](=O)[O-])cc2)C(=O)N(C)[C@@H](CC(C)C)C(=O)N[C@@H](C(C)C)C(=O)N(C)[C@@H](CC(C)C)C(=O)N[C@@H](C)C(=O)N[C@H](C)C(=O)N(C)[C@@H](CC(C)C)C(=O)N(C)[C@@H](CC(C)C)C(=O)N(C)[C@@H](C(C)C)C(=O)N1C [Compound 6, [D-2-(4-nitrophenyl)thio-sar^3] cyclosporin A]	89
[D-2-(dimethylthiocarbamyl)dithio-sar^3] cyclosporin A [Compound 7]	85

Tested on: mouse's back
Test: not given
Conditions: comparative experiments on mouse's back, relative to minoxidil; cited from earlier work

Compound	hair regrowth effect, times superior to minoxidil
cyclosporin	about 100 times
